For six molecules, IC50 results are on record in ChEMBL document CHEMBL1136534, “Dihydroquinolines with amine-containing side chains as potent n-NOS inhibitors” (Bioorg Med Chem Lett, 2003).

Each structure is given as a SMILES string.

For assay [1], the target named is Nitric oxide synthase 1 (Homo sapiens, UniProt P29475). The assay is described as follows: Inhibitory concentration against recombinant human (neuronal nitric oxide synthase) n-NOS.
The target in assay [2] is T1, Nitric oxide synthase 3 (Homo sapiens, UniProt P29474).
T1 sequence (P29474 whole entry): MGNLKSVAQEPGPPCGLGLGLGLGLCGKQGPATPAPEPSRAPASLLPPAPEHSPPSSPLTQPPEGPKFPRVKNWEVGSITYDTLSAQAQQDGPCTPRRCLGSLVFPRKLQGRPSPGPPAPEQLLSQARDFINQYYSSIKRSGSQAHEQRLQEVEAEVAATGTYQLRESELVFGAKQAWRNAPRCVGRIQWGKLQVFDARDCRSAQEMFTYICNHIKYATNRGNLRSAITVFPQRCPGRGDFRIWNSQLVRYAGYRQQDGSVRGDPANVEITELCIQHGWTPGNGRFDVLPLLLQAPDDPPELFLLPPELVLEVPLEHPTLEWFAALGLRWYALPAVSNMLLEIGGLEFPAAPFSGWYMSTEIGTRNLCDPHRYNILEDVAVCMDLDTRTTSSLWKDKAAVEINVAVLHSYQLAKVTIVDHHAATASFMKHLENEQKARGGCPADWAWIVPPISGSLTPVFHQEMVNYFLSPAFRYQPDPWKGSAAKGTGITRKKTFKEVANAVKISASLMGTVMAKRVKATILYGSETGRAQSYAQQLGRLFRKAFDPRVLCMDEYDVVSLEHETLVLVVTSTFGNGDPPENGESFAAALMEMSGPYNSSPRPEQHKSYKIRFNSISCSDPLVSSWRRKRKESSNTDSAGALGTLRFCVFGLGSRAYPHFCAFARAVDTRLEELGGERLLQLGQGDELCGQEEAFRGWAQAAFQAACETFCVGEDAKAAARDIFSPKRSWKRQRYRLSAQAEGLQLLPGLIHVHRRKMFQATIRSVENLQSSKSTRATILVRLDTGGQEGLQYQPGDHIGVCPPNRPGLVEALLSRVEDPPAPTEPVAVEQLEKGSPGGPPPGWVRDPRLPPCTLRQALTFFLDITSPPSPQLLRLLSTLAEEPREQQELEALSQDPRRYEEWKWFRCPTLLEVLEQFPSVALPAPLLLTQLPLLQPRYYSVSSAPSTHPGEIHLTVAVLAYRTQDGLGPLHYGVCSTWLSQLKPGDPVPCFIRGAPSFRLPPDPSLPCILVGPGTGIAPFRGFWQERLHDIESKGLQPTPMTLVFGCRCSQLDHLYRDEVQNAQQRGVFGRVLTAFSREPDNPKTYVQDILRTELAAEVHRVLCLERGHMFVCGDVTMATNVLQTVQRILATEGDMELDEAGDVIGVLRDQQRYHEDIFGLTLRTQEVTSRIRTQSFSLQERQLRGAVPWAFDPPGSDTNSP
Put plainly: Inhibitory concentration against recombinant human Endothelial nitric oxide synthase.

Assay [3] deals with Nitric oxide synthase, inducible (Homo sapiens, UniProt P35228). Put plainly: Inhibitory concentration against human Inducible nitric oxide synthase.
Sequence of Nitric oxide synthase, inducible (P35228 whole entry): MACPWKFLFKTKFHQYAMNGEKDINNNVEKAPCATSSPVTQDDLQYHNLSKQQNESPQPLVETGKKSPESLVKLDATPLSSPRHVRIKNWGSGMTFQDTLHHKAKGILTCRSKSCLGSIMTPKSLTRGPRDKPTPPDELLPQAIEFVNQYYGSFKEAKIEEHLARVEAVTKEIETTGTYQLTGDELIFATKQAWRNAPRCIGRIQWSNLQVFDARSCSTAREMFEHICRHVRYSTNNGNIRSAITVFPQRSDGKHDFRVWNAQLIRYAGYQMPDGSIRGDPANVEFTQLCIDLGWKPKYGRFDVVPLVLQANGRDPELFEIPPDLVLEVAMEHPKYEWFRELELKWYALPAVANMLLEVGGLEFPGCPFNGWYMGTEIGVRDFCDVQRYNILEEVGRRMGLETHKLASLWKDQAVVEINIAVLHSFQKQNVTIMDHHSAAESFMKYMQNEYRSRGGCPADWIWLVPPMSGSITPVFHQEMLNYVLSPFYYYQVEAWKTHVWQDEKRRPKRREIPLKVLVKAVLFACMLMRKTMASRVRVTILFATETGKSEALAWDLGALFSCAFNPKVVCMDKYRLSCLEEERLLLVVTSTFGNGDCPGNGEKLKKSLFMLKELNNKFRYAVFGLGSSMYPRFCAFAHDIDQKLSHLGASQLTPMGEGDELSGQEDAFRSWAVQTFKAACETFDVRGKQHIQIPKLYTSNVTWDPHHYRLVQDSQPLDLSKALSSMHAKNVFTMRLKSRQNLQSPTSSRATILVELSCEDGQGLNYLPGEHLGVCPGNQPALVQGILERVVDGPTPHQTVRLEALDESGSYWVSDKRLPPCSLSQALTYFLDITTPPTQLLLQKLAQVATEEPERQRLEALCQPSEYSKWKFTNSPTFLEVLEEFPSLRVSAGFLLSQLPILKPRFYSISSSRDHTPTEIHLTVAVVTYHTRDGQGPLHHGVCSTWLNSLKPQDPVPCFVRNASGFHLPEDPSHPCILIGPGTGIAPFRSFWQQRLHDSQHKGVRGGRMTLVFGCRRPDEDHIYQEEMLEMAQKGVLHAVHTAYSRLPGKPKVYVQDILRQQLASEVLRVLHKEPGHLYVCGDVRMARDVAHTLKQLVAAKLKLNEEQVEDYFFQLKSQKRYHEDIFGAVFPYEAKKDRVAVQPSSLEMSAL

Sequence of Nitric oxide synthase 1 (P29475 whole entry): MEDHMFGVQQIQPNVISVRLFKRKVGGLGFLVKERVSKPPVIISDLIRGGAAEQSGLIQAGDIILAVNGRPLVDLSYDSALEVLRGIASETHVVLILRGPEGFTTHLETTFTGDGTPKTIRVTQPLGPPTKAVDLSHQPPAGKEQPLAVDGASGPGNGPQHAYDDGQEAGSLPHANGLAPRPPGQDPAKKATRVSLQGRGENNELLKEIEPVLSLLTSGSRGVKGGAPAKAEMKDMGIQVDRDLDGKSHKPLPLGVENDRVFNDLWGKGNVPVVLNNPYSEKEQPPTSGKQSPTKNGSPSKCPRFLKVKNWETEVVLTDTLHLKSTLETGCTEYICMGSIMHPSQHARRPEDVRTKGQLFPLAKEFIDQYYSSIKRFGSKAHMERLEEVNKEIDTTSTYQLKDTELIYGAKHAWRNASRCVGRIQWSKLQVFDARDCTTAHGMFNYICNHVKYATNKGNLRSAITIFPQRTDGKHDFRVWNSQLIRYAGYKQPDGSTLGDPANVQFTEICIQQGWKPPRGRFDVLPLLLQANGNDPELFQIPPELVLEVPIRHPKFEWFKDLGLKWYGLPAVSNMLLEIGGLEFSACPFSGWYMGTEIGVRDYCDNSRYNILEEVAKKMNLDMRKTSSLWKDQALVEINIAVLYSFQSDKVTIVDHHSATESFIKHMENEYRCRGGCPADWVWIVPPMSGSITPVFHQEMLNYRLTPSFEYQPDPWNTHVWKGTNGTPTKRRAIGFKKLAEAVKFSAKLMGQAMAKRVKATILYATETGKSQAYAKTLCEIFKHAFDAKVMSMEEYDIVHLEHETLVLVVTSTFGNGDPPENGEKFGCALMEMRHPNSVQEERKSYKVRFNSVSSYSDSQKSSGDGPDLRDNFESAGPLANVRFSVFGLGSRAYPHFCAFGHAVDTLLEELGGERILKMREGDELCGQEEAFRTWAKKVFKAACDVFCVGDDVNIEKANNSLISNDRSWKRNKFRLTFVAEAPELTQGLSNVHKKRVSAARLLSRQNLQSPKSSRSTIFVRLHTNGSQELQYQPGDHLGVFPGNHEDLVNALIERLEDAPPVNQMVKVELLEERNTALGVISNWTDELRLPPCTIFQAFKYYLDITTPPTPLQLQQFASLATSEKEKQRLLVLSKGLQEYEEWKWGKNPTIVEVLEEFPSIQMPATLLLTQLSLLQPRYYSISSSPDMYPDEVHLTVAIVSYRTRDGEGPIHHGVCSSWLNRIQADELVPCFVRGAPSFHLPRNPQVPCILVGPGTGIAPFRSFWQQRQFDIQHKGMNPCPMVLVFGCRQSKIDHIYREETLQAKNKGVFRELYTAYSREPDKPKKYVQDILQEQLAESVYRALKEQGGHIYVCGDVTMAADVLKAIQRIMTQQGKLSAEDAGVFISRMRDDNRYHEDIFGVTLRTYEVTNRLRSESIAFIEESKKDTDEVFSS

For orientation: IC50 means the concentration that inhibits the measured activity by half. Regarding `N=C(Nc1ccc(CCNCc2cccc(Cl)c2)cc1)c1cccs1`, the concentration for half-maximal inhibition (IC50) in assay [1] came to 35 nM; in assay [2], 3500 nM.

On to `CNCCOc1ccc2c(c1)N=C(N)[C@@H]1CCC[C@H]21`, for which the IC50 in assay [3] turned out to be 3900 nM; in assay [1], 170 nM; in assay [2], 52000 nM.

Take `NC1=Nc2cc(CCNCc3cccc(Cl)c3)ccc2[C@H]2CCC[C@@H]12`: the values for the IC50 in assay [3], in assay [1] and in assay [2] were 530 nM, 48 nM and 6700 nM, respectively.

Turning to `NC1=Nc2cc(CNCc3cccc(Cl)c3)ccc2[C@H]2CCC[C@@H]12`, the values for the half-maximal inhibitory concentration (IC50) in assay [3], in assay [1] and in assay [2] were 950 nM, 140 nM and 9600 nM, respectively.

Turning to `NC1=Nc2cc(CCCNCc3cccc(Cl)c3)ccc2[C@H]2CCC[C@@H]12`, the IC50 came to 580 nM in assay [3], 42 nM in assay [1] and 9400 nM in assay [2].

As to `NC1=Nc2cc(CCNCc3cccc(Cl)c3)c(Cl)cc2[C@H]2CCC[C@@H]12`, the IC50 was 1600 nM in assay [3], 170 nM in assay [1] and 8700 nM in assay [2].
